Conditions in all cases: in vivo
Data set [1] deals with bentgrass (breed: pencross). As to the kind of experiment: Test Example 7: pot test, copper phthalocyanine or Prussian Blue applied 1 day before flazasulfuron. Here is the method:
(§1) On 13th day after the treatment with flazasulfuron, the state of growth of bentgrass was visually observed and evaluated in accordance with growth inhibition rate (%)=0 (equivalent to the non-treated area) to 100 (complete kill), and thereby the results shown in Table 1 were obtained. Further, the test was carried out in duplicate.
(§2) 1/1,000,000 ha pots were prepared, as the present invention area, comparative area and non-treated area, soil was put into them, and bentgrass (breed: pencross) in sod state was planted thereon. After the bentgrass root-took on soil, a spray liquid was prepared by diluting copper phthalocyanine or Prussian Blue with water to 1,000 times or 500 times, and the bentgrass in the present invention area was subjected to foliar treatment with the spray liquid in an amount of about 1,000 L/ha by a small spray gun. After 1 day, a spray liquid was prepared by diluting a predetermined amount (corresponding to flazasulfuron: 5 g a.i./ha) of SHIBAGEN DF (tradename, the same as in Test Example 1) with water containing 0.02 wt % of Kusa-rino (tradename, the same as in Test Example 1), and the bentgrass in the present invention area and comparative area were subjected to foliar treatment with the spray liquid in an amount of about 2,000 L/ha by a small spray gun.
On 8th day after the treatment with flazasulfuron, the state of growth of bentgrass was evaluated in the same manner as in Test Example 1, and thereby the results shown in Table7 were obtained. Further, the test was carried out in duplicate.

For data set [2], the system named is bentgrass (breed: pencross). Nature of the data set: Test Example 8: pot test, Prussian Blue applied 5 days after flazasulfuron. On the procedure: as §1
as §2, with “soil,” for “soil, a spray liquid was prepared by diluting copper phthalocyanine or Prussian Blue with water to 1,000 times or 500 times, and the bentgrass in the present invention area was subjected to foliar treatment with the spray liquid in an amount of about 1,000 L/ha by a small spray gun. After 1 day,”, “gun. […]” for “gun.”
On 7th day after the treatment with Prussian Blue, the state of growth of bentgrass was evaluated in the same manner as in Test Example 1, and thereby the results shown in Table 8 were obtained. […]

In data set [3] the test system is bentgrass (breed: pencross). On the procedure:
as §1
as §2, with “Pigment Green 7” for “copper phthalocyanine or Prussian Blue”, “125” for “1,000 times or 500”, “10” for “5”
On 7th day after the treatment with flazasulfuron, the state of growth of bentgrass was evaluated in the same manner as in Test Example 1, and thereby the results shown in Table 9 were obtained. Further, the test was carried out in triplicate.

For data set [4], the system named is bentgrass (breed: pencross). Nature of the data set: Test Example 2: pot test, TurfGreen BG applied 1 day after flazasulfuron. Here is the method: as §1
as §2, with “With respect” for “After the bentgrass root-took on soil, a spray liquid was prepared by diluting copper phthalocyanine or Prussian Blue with water”, “to” for “to 1,000 times or 500 times, and”, “and comparative area, after” for “was subjected to foliar treatment with”, “bentgrass root-took on soil,” for “spray liquid in an amount of about 1,000 L/ha by a small spray gun. After 1 day,”, “gun. […]” for “gun.”
On 7th day after the treatment with TurfGreen BG, the state of growth of bentgrass was evaluated in the same manner as in Test Example 1, and thereby the results shown in Table 2 were obtained. […]

Data set [5] relates to bentgrass (breed: pencross). As to the kind of experiment: Test Example 1: pot test, TurfGreen BG applied 7 days before flazasulfuron. On the procedure:
1/300,000 ha pots were prepared, as the present invention area, comparative area and non-treated area, soil was put into them, and bentgrass (breed: pencross) in sod state (state of mat) was planted thereon. With respect to the bentgrass in the present invention area, after the bentgrass root-took on soil, a spray liquid was prepared by diluting a colorant for turfgrass (tradename: TurfGreen BG (containing chlorinated copper phthalocyanine), manufactured by Nisso Green Co., Ltd.) with water to 50 times, and the bentgrass was subjected to foliar treatment with the spray liquid in an amount of about 2,000 L/ha by a small spray gun. […]
On 13th day after the treatment with flazasulfuron, the state of growth of bentgrass was visually observed and evaluated in accordance with growth inhibition rate (%)=0 (equivalent to the non-treated area) to 100 (complete kill), and thereby the results shown in Table 1 were obtained. […]

The subject of data set [6] is bentgrass (breed: pencross). Nature of the data set: Test Example 4: ground plot test, TurfGreen BG applied 7 days after flazasulfuron. On the procedure:
as §1
Among bentgrass (breed: pencross) planted on ground in sod state in 0.5 m^2 (5.0×10^−5 ha, 1 m×0.5 m) of the present invention area, comparative area and non-treated area, the bentgrasses in the present invention area and comparative area were subjected to foliar treatment with a spray liquid prepared by diluting a predetermined amount (corresponding to flazasulfuron: 6.25 g a.i./ha) of SHIBAGEN DF (tradename, the same as in Test Example 1) with water containing 0.02 wt % of Kusa-rino (tradename, the same as in Test Example 1) in an amount of about 2,000 L/ha by a hand portable pump sprayer. […]
Prior to the treatment with TurfGreen BG or on 7th day after the treatment with TurfGreen BG, the state of growth of bentgrass was evaluated in the same manner as in Test Example 1, and thereby the results shown in Table 4 were obtained. […]

Data set [7] relates to bentgrass (breed: pencross). Nature of the data set: Test Example 3: ground plot test, TurfGreen BG applied 1 or 3 days before flazasulfuron. Here is the method: as §1
(§3) Among bentgrass (breed: pencross) planted in sod state on ground in 0.5 m^2 (5.0×10^−5 ha, 1 m×0.5 m) in the present invention area A, the present invention area B, comparative area and non-treated area, the bentgrass in the present invention area A, the present invention area B and comparative area were subjected to foliar treatment with a spray liquid prepared by diluting a predetermined amount (corresponding to flazasulfuron: 6.25 g a.i./ha) of SHIBAGEN DF (tradename, the same as in Test Example 1) with water containing 0.02 wt % of Kusa-rino (tradename, the same as in Test Example 1) in an amount of about 2,000 L/ha by a hand portable pump sprayer. […]
On 14th day after the treatment with flazasulfuron, the state of growth of the bentgrass was evaluated in the same manner as in Test Example 1, and thereby the results shown in Table 3 were obtained. […]

The test system of data set [8] is bentgrass (breed: pencross). Nature of the data set: Test Example 6: ground plot test, FULLGREEN S applied 1 day before or after flazasulfuron. Here is the method:
as §1
as §3, with “planted on ground” for “planted”, “state” for “state on ground”, “m) of” for “m) in”, “a small spray gun.” for “a hand portable pump sprayer.”
On 7th day after the treatment with flazasulfuron, the state of growth of bentgrass was evaluated in the same manner as in Test Example 1, and thereby the results shown in Table 6 were obtained. […]

For data set [9], the system named is bentgrass (breed: pencross). As to the kind of experiment: Test Example 5: pot test, colorants applied 1 day before flazasulfuron. On the procedure:
as §1
1/1,000,000 ha pots were prepared, as the present invention area, comparative area and non-treated area, soil was put into them, and bentgrass (breed: pencross) in sod state was planted thereon. After the bentgrass root-took on soil, a spray liquid was prepared by diluting a colorant for turfgrass (tradename: Green Way (pigment containing metal ions), manufactured by Otsuka Chemical Co., Ltd.), (tradename: Green Way Sayaka (pigment containing metal ions), manufactured by Otsuka Chemical Co., Ltd.) or (tradename: Clear Green L (copper phthalocyanine), manufactured by Ohkawaya Co., Ltd.) with water to 50 times, and the bentgrass in the present invention area was subjected to foliar treatment with the spray liquid in an amount of about 2,000 L/ha by a small spray gun. […]
On 7th day after the treatment with flazasulfuron, the state of growth of bentgrass was evaluated in the same manner as in Test Example 1, and thereby the results shown in Table 5 were obtained. […]

Like-named read-outs stand apart in the source and are kept apart here.

Consider `[Cu+2].c1ccc2c(c1)-c1nc-2nc2[n-]c(nc3nc(nc4[n-]c(n1)c1ccccc41)-c1ccccc1-3)c1ccccc21` [copper phthalocyanine], for which, in data set [1], the “State of growth of bentgrass, Growth inhibition rate (%)” value (“State … Growth inhibition rate (%)” for short) worked out at 40% and the “phytotoxicity due to flazasulfuron, compared with comparative area” value is recorded as “reduced”.
Regarding `COc1cc(OC)nc(NC(=O)NS(=O)(=O)c2ncccc2C(F)(F)F)n1` [flazasulfuron], the “State … Growth inhibition rate (%)” value in data set [2] was 54%; in [3], 56%; in data set [4], 48%; in data set [5], 50%; in [1], 55%; in data set [6], 30%. Also, the “State … Growth inhibition rate (%)” value in data set [7] is given as 40%; in [8], 31%; in [9], 53%.
For Pigment Green 7, in data set [3], the “State … Growth inhibition rate (%)” value stood at 50% and the “phytotoxicity due to flazasulfuron, compared with comparative area” value is “reduced”.

(Values after US20120198764A1, “METHOD FOR REDUCING PHYTOTOXICITY” (Ishihara Sangyo Kaisha, Ltd., priority 2009, published 2012).)
